According to a melting point compilation (Tetko et al.; mined from patent text by program, amines drawn as free bases though some values may be those of a salt):

Going from `O=c1sc(CO)c(C(F)(F)F)n1-c1ccccc1` to `Cn1c(C(F)(F)F)nn(-c2ccccc2[N+](=O)[O-])c1=O`, the melting point falls from 135 °C to 83 °C.

Compared with `O=C1c2cccc(-c3ccccc3)c2C(=O)C1c1ccccc1` (stereo not given), `Oc1cccc2c1c1ccccc1n2Cc1ccccc1` is lower in melting point: 166 to 168 °C for the first, 119 to 122 °C for the second.

`Cc1c(-c2ccccc2)sc2c1c(=O)c(C(=O)C(C)C)cn2Cc1c(F)cccc1F` and `Cc1c(F)cccc1Cc1c(-c2ccccc2)c2cc(O)cnn2c1C(=O)N1CCNCC1` cannot be ordered by melting point: 205 to 207 °C for the first, 206 to 208 °C for the second.

First: O=C(NO)c1ccc(CNC(=O)c2[nH]c(-c3ccccc3)cc2-c2ccc(O)cc2)cc1
Second: O=c1[nH]c(-c2ccc(O)cc2)cc2ccccc12
The melting point of the first is lower: 139 to 141 °C for the first, 239 to 241 °C for the second.

First: COc1ccc2nnc3ccc(OC)cc3c2c1
Second: COc1ccc(CN2C=CC=C3C2=Nc2cc(OC)ccc2S(=O)(=O)N3C)cc1
The melting point of the first is lower: 170 to 172 °C for the first, 179 to 180 °C for the second.

First: CCOC(=O)[C@H](Cc1ccc(-c2c(OC)cc(CO)cc2OC)cc1)NC(=O)c1c(F)cccc1Cl
Second: CCCOc1ccc(-c2scc(-c3ccccc3Cl)c2CC(=O)NC(=N)NCCCO)cc1C
The melting point of the first is higher: 101 to 104 °C for the first, 73 to 76 °C for the second.

Compared with `COc1ccccc1S(=O)(=O)OCC(=O)c1ccccc1`, `CCOC(=O)CC1(S(N)(=O)=O)c2ccccc2-c2ccccc21` is higher in melting point: 88 °C for the first, 167 to 170 °C for the second.

First: Cn1ccnc1Sc1ccc(Nc2c(C#N)cnc3cc(-c4csc(CN5CCOCC5)c4)ccc23)cc1Cl
Second: Cc1cc(N2CCN(C(=O)c3ccc(Nc4ccnc5cc(C(F)(F)F)ccc45)cc3)CC2)nc(N)n1
The melting point of the first is lower: 110 to 113 °C for the first, 283 to 286 °C for the second.

First: CCCCn1nc(SCc2ccc(OC)cc2)c(C(=O)O)c1Cc1cc2c(cc1Cl)OCO2
Second: CCCCc1nc(CO)c(S(=O)(=O)CC)n1Cc1ccc(-c2ccccc2C(=O)O)cc1
The melting point of the first is lower: 181 °C for the first, 210 °C for the second.

First: CCCn1c(OCC2CC2(Cl)Cl)nc2sccc2c1=O (stereo not given)
Second: O=C1c2ccccc2C(=O)N1CCCSc1ncco1
The melting point of the first is lower: 64 to 66 °C for the first, 101 °C for the second.

First: Cn1c(=O)c2c(ncn2CCCCCCO)n(C)c1=O
Second: CCCCCC(=O)N(CO)C1N=C(c2ccccc2)c2ccccc2N(C)C1=O (single isomer, unassigned; (+))
The melting point of the first is lower: 80 °C for the first, 154 to 156 °C for the second.

Compared with `C=C1C(=C)C2OC1C1=C2Cc2c(cccc2OC)C1` (stereo not given), `COc1ccc(-c2c(-c3ccccc3)nc3n2CCS3)cc1OC` is higher in melting point: 145 to 147 °C for the first, 176 to 178 °C for the second.

First: CS(=O)(=O)NC1CCC(=O)N2CCCC(C(=O)NC(CC(=O)O)C(=O)COc3cccnc3)N2C1=O (stereo not given)
Second: CCOc1ccc2c(c1)n(C1CCCCC1)c(=O)n2S(=O)(=O)c1ccc(C(=O)NC(C)(C)CC(C)(C)C)cc1OC
The melting point of the first is lower: 120 to 125 °C for the first, 180 °C for the second.

First: CCO[C@@H]1c2ccn3c(C)c(C)nc3c2N[C@H](c2ccccc2)[C@H]1O
Second: COC(=O)Nc1nc(C)c(-c2nc3ccccc3c(=O)n2-c2ccccc2)s1
The melting point of the first is lower: 143 to 144 °C for the first, > 275 °C for the second.

First: CCOC(=O)Nc1cc(N(C(=O)OCC)S(=O)(=O)CC)c(Br)cc1F
Second: CCCCCCCCCCCCCC(=O)Nc1ccc(Cl)c(NC(=CC(=O)OCC)OCC)c1
The melting point of the first is higher: 142 to 143 °C for the first, 115 to 118 °C for the second.

First: CC(=O)OC1CCC2C3CCC4=CC(=O)C(I)C(C)C4(C)C3CCC12C (stereo not given)
Second: C=CC=CCC1=C(C)C(OC(=O)C2C(C=C(C)C)C2(C)C)CC1=O (stereo not given)
The melting point of the first is higher: 102 °C for the first, 57 °C for the second.

First: CCc1cc2c(OCC(=O)OC)cccc2n1Cc1ccccc1
Second: COCOc1ccc(C(=O)CI)c(OCc2ccccc2)c1
The melting point of the first is higher: 89 to 92 °C for the first, 66 to 68 °C for the second.

First: CN(C)c1ccc(/C=C/C(=O)CC(=O)/C=C/c2ccc3cc[nH]c3c2)cc1
Second: CC(C)Oc1cccc(C(CC(=O)O)NS(=O)(=O)c2ccc3ccccc3c2)c1 (stereo not given)
The melting point of the first is lower: 112 to 119 °C for the first, 126 °C for the second.

First: CCc1c(CCNC(=O)CCCC(=O)NCCc2ccc(OC)c(OC)c2CC)ccc(OC)c1OC
Second: CCCc1c(OCCCS(=O)(=O)c2ccc(CC(=O)OC)cn2)ccc(C(C)=O)c1O
The melting point of the first is higher: 171 to 173 °C for the first, 124 to 126 °C for the second.

First: CCOCc1nc2c(N)nc(C)c(C)c2n1Cc1cc(-c2cccnc2)no1
Second: Cc1nc(N)c2nc(CONC(C)C)n(CCCCNC(=O)C(C)C)c2c1C
The melting point of the first is higher: 189 to 191 °C for the first, 156 to 157 °C for the second.

First: CC(C)c1nc(COCc2ccccc2)n(Cc2cnc3ccccc3c2)c1Sc1cc(Cl)cc(Cl)c1
Second: COn1c(-c2ccccc2)nc2c(N)nc3ccccc3c21
The melting point of the first is lower: 95 to 98 °C for the first, 241 to 243 °C for the second.

First: Cc1ccc(S(=O)(=O)OC[C@H]2COc3cc(F)c4c(c3O2)CC(=O)N4)cc1
Second: CCOC(=O)N1CCC(c2ccc3oc(-c4ccc(S(C)(=O)=O)cc4F)nc3c2)CC1
The melting point of the first is higher: 205 to 206 °C for the first, 145 to 148 °C for the second.

Compared with `C=CCC1(C)OC(=O)Nc2ccc(-c3cccc(Cl)c3)cc21` (stereo not given), `ClCc1cccc(/C=C/c2cc(-c3ccsc3)cs2)c1` is higher in melting point: 128 to 129 °C for the first, 137 to 138 °C for the second.

First: O=C(O)C12CC3(F)CC(F)(CC(F)(C3)C1)C2
Second: O=C(NC12CC3CC(CC(C3)C1)C2)c1cc(O)c(O)c(Cl)c1
The melting point of the first is lower: 198 to 199 °C for the first, 244 to 247 °C for the second.

First: Cc1cc(NC(=O)OC(C)(C)C)c([N+](=O)[O-])cc1I
Second: CC1=C(C(=O)OC(C)(C)C)C(c2cccc(F)c2)C(C(=O)OC(C)(C)C)=C(C)N1
The melting point of the first is lower: 99 to 100 °C for the first, 178 to 179 °C for the second.

First: CC(=O)Oc1c(C(C)(C)C)cc(O)c(C=O)c1C(C)(C)C
Second: CCCCSc1cc(C(=O)OC)cc(S(N)(=O)=O)c1Cc1ccccc1
The melting point of the first is lower: 79 °C for the first, 118 to 120 °C for the second.

First: CC(=O)CC(=O)NCc1ccccc1
Second: CC(C)NC(=O)Oc1ccccc1
The melting point of the first is higher: 84 to 86 °C for the first, 81 to 82 °C for the second.

First: [O-][N+]1=C(c2ccccc2F)c2cc(Cl)ccc2-c2ncncc2C1
Second: CC(CC(=O)O)c1ccc(-c2ccccc2F)cc1 (stereo not given)
The melting point of the first is higher: 185 to 186 °C for the first, 87 to 88 °C for the second.

First: CCCCN(C)C(=O)OCCCc1ccc(OCCOC)cc1Oc1ncc(C(F)(F)F)cc1Cl
Second: CCCCCCOc1ccc(-c2cc(CO)ccc2CO)cc1
The melting point of the first is lower: 54 to 55.2 °C for the first, 72.5 to 74 °C for the second.

First: Brc1ccccc1Oc1nc2ccccc2n2cncc12
Second: Cn1c2ccccc2c2nc3cccc(C=O)c3nc21
The melting point of the first is lower: 180 to 182 °C for the first, 219 to 221 °C for the second.

Compared with `CN(C)CCOc1ccc(Nc2nccc(-c3ccncc3)n2)cc1`, `N#Cc1cc(-c2cccnc2)nn1-c1ccc(NCC2Cc3ccccc3C2)cc1` is higher in melting point: 120 to 122 °C for the first, 156 to 158 °C for the second.

First: CNc1nc(C)c(C(=O)c2ccc(N)c(N)c2)s1
Second: CC#CN(C(C)=O)c1nc2ccccc2s1
The melting point of the first is lower: 115 to 125 °C for the first, 138 to 139 °C for the second.

First: COc1cc2c(cc1OC)CN(CCCOc1ccc([N+](=O)[O-])cc1)CC2
Second: COc1ccc(C2=NN(C3CCN(S(=O)(=O)N(C)C)CC3)C(=O)CC2)cc1OC
The melting point of the first is lower: 100 °C for the first, 103 to 106 °C for the second.

Compared with `CCCCCCCNC(=O)Nc1ccc(N)cc1C(=O)NC1CCN(C(c2ccccc2)c2ccccc2)CC1`, `CN1CCC(OC2c3cccc(-c4cccc(N)c4)c3CCn3cc(-c4ccccc4)nc32)CC1` (stereo not given) is lower in melting point: 190 to 192 °C for the first, 120 °C for the second.

First: Cc1ccc(N2CCN(Cc3ccc4c(c3)NCCN4)CC2)cc1Cl
Second: CCNC(=O)c1ccc(N2CCN(Cc3cnc4c(c3)NC(=O)C3CCCCN43)CC2)cc1 (stereo not given)
The melting point of the first is lower: 151 to 152 °C for the first, 233 °C for the second.

First: Cc1nc2cccc(C)c2c(=O)[nH]1
Second: CN(C(=O)c1cc2c(cn1)[nH]c1ccccc12)c1ccccc1
The melting point of the first is higher: 255 to 257 °C for the first, 237 to 240 °C for the second.

Compared with `O=C1C(I)=CC2COC1O2` (stereo not given), `CC1(C)CC(=O)OC(C(Cl)(Cl)Cl)C1Cl` (stereo not given) is higher in melting point: 66 to 67 °C for the first, 83 to 84 °C for the second.

First: CN(C(N)=O)c1ccc(C(O)(C(F)(F)F)C(F)(F)F)cc1
Second: CC(C)n1nc(C(=O)C(=O)c2ccccc2)ccc1=O
The melting point of the first is higher: 181 to 184 °C for the first, 71 to 73 °C for the second.

Compared with `COc1ccc(N(C(=O)CN2C(=O)C(Cc3nn(Cc4ccccc4)c4c3CCCC4)C(=O)N(c3ccccc3)c3ccccc32)C(C)C)cc1` (stereo not given), `O=C1CN(c2ccccc2)C(=S)N1c1ccccc1` is higher in melting point: 173 to 176 °C for the first, 214 °C for the second.

Compared with `CCc1nc2c(C)c(S(=O)(=O)N(C)C)c(C)nc2[nH]1`, `CCNc1cc(Cl)nc(C#N)c1N` is lower in melting point: 179 to 182 °C for the first, 150 °C for the second.

First: CCCCc1ncc(C=O)n1Cc1ccc(C(=O)O)c2ccccc12
Second: O=C(O)Cc1cc(F)ccc1OCCc1ccccc1
The melting point of the first is higher: 182 °C for the first, 99 to 101 °C for the second.

Compared with `c1ccc2c(c1)CNc1ccccc1S2`, `O=C1c2cc(O)ccc2CC1Cc1ccccc1` (stereo not given) is lower in melting point: 145 to 148 °C for the first, 140 to 143 °C for the second.

First: Cc1[nH]c(/C=C2\C(=O)Nc3cc(NC(=O)c4cccn(-c5ccc(F)cc5)c4=O)ccc32)c(C)c1CC(=O)O
Second: O=C(Nc1ccccc1)c1cccc(C2=NOCCS2)c1
The melting point of the first is higher: > 300 °C for the first, 149 to 150 °C for the second.

First: CCOC(=O)CCCC1(CCCC(=O)OCC)CC(=O)c2ccc(O)cc2O1
Second: C#CCOc1cc2c(=O)cc(C(=O)OCC)n(CC#C)c2ccc1=O
The melting point of the first is lower: 108 to 110 °C for the first, 169 °C for the second.

Compared with `CCC(Oc1cncc(Br)c1)C(=O)O` (stereo not given), `Cc1onc(-c2ccc(Cl)cc2)c1CCC(=O)O` is higher in melting point: 100 to 102 °C for the first, 187 to 188 °C for the second.

First: Cc1nccn1-c1nc(-c2ccc(Cl)cc2)c(CCCN2C(=O)CN(C)C2=O)o1
Second: CN1CCN(C2=Nc3cc(Cl)ccc3Cn3nnnc32)CC1
The melting point of the first is lower: 105 to 106 °C for the first, 228 to 230 °C for the second.

First: N#CC1=C(C2CCC2)Nc2n[nH]cc2C1c1ccccc1Cl (stereo not given)
Second: COC(=O)Nc1nc2cc(C3(c4ccccc4)OCC(C)(C)CO3)ccc2[nH]1
The melting point of the first is lower: 188 °C for the first, 224 °C for the second.

First: COc1c(Cl)cc(F)c(I)c1F
Second: O=C1CC2(CN1)CC(O)c1cc(Cl)ccc12 (stereo not given)
The melting point of the first is lower: 62 to 64 °C for the first, 172 to 174 °C for the second.

Compared with `CC(C)c1cccc(C(C)C)c1NC(=O)CN`, `N#CCCCc1ncccc1NS(=O)(=O)c1ccccc1` is lower in melting point: 88 to 95 °C for the first, 80 to 81 °C for the second.

First: O=C(CCn1cnc2c(=O)[nH]cnc21)NCCc1c[nH]c2ccccc12
Second: O=CN(O)C(CCc1ccc(C(=O)O)cc1)CS(=O)(=O)c1ccc(Oc2ccc(OC(F)(F)F)cc2)cc1 (stereo not given)
The melting point of the first is higher: 204 to 206 °C for the first, 189 to 191 °C for the second.
